US20240299385A1 (ReWind Therapeutics NV, priority 2021, published 2024)

Target: T1, human GPR17 receptor (Homo sapiens, UniProt Q13304)
T1 construct: host or cells: HEK-293
Assay: Calcium mobilization functional assay (Fluo-8, FLIPR TETRA) in HEK-293 hGPR17 (Gα-q assay)
Format: cell-based
Conditions: antagonism of MDL29,951 (~EC80) induced Ca2+ signal; cell line (HEK-293 hGPR17 or HEK-293 Suchi5 hGPR17) not given
Description: HEK-293 cells stably expressing the human GPR17 receptor (HEK-293 hGPR17) developed by Axxam (Bresso, Milan, Italy) were cultured at 37° C. in a humidified atmosphere of 5% CO2. Cells were grown in EMEM supplemented with FBS (10%), Penicillin/Streptomycin (1%), Ultraglutamine I (2 mM), puromycin (0.6 μg/mL), G418 (0.4 mg/mL), zeocin (50 μg/mL). This cell line was used to test the compound antagonistic activity by monitoring the Gα-q based signaling. Signaling via Gα-q leads to mobilization of calcium from internal stores. Elevated intracellular calcium levels can then be measured with calcium-sensitive fluorescent dyes (e.g., Fluo 8-No Wash Dye).
GPR17 activation leads to both an increase in intracellular calcium (via Gα-q) and a decrease in cAMP levels (via Gα-i), implicating that both of these pathways play a role for in vivo function.
Experiments were performed using the below cell lines, as described in part 1: • HEK-293 hGPR17 (used to study the compounds acting via Gα-q pathway) • HEK-293 Suchi5 hGPR17 (used to study the compounds acting via Gα-i pathway, where the Gα-i signaling is switched to a Gα-q signaling thanks to the Gα-i/q chimera Suchi5)
GPR17 activation was able to induce an endoplasmic reticulum calcium (Ca^2+) store release in cytosol which could be measured using the fluorescent Ca^2+ sensitive dye Fluo-8 No Wash Dye as readout.
HEK-293 hGPR17 and HEK-293 Suchi5 hGPR17 were seeded at a density of 15,000 cells/well into poly-D-lysine coated black 384-well plates with clear bottom in complete medium. Cells were incubated overnight at 37° C. in a humidified atmosphere of 5% CO2. Twenty-four hours after seeding, the culture medium was carefully removed manually and the cells were loaded for 60 minutes at room temperature with the Ca^2+ sensitive Fluo-8 No Wash Dye, according to manufacturer's instructions. Cells were then assayed using a fluorometric imaging plate reader (FLIPR^TETRA). Fluorescence (excitation: 470-495 nm; emission: 515-575 nm) was recorded during the experiment. […] After twenty minutes, a second injection of MDL29,951 at ˜EC80 (500 nM for HEK-293 hGPR17 and 2 nM for HEK-293 Suchi5 hGPR17) in assay buffer was performed at the FLIPR^TETRA and the signal of the emitted fluorescence was recorded for additional 2 minutes. All the compound injections and incubations were performed in duplicate. For data quality and data analysis the Screener® 16.0.6 (Genedata) software was used.

T1 sequence (Q13304 whole entry): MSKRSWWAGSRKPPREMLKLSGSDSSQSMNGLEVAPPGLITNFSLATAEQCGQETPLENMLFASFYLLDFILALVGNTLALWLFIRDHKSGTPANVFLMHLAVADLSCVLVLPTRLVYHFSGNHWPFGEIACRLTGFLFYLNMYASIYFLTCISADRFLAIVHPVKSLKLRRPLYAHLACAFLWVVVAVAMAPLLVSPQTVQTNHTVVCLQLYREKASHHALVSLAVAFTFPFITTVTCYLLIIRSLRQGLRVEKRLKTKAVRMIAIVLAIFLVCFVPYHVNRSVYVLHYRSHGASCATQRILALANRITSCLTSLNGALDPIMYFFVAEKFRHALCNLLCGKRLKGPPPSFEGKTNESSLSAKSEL

With `N#Cc1cc(F)c(NS(=O)(=O)c2c[nH]c(-c3ccccc3)c2F)cc1F` [Cpd 076, N-(4-cyano-2,5-difluoro-phenyl)-4-fluoro-5-phenyl-1H-pyrrole-3-sulfonamide] the IC50 was < 500 nM.
Work on `N#Cc1cc(F)c(NS(=O)(=O)c2cc(-c3ccccc3)[nH]c2F)cc1F` [Cpd 077, N-(4-cyano-2,5-difluoro-phenyl)-2-fluoro-5-phenyl-1H-pyrrole-3-sulfonamide] yielded an IC50 of 500 to 5000 nM.
Work on `Cn1nccc1-c1cc(S(=O)(=O)Nc2ccc(C#N)cc2F)c[nH]1` [Cpd 078, N-(4-cyano-2-fluoro-phenyl)-5-(2-methylpyrazol-3-yl)-1H-pyrrole-3-sulfonamide] yielded an IC50 of 5000 to 50000 nM.
In the case of `N#Cc1ccc(NS(=O)(=O)c2c[nH]c(-c3ccccc3C(F)(F)F)c2)c(F)c1` [Cpd 079, N-(4-cyano-2-fluoro-phenyl)-5-[2-(trifluoromethyl)phenyl]-1H-pyrrole-3-sulfonamide], the IC50 is reported as 500 to 5000 nM.
`COCc1ccccc1-c1cc(S(=O)(=O)Nc2ccc(C#N)cc2F)c[nH]1` [Cpd 080, N-(4-cyano-2-fluoro-phenyl)-5-[2-(methoxymethyl)phenyl]-1H-pyrrole-3-sulfonamide] was tested, and the IC50 was 500 to 5000 nM.
In the case of `Cn1ccc(-c2cc(S(=O)(=O)Nc3ccc(C#N)cc3F)c[nH]2)n1` [Cpd 081, N-(4-cyano-2-fluoro-phenyl)-5-(1-methylpyrazol-3-yl)-1H-pyrrole-3-sulfonamide], the IC50 is reported as 500 to 5000 nM.
With `Cc1cccc(F)c1-c1cc(S(=O)(=O)Nc2ccc(C#N)cc2F)c[nH]1` [Cpd 082, N-(4-cyano-2-fluoro-phenyl)-5-(2-fluoro-6-methyl-phenyl)-1H-pyrrole-3-sulfonamide] the IC50 was < 500 nM.
With `COc1cccc(F)c1-c1cc(S(=O)(=O)Nc2ccc(C#N)cc2F)c[nH]1` [Cpd 083, N-(4-cyano-2-fluoro-phenyl)-5-(2-fluoro-6-methoxy-phenyl)-1H-pyrrole-3-sulfonamide] the IC50 was < 500 nM.
`COc1ccc(F)c(-c2cc(S(=O)(=O)Nc3ccc(C#N)cc3F)c[nH]2)c1` [Cpd 084, N-(4-cyano-2-fluoro-phenyl)-5-(2-fluoro-5-methoxy-phenyl)-1H-pyrrole-3-sulfonamide] was tested, and the IC50 was < 500 nM.
Compound `Cc1cccc(C)c1-c1cc(S(=O)(=O)Nc2ccc(C#N)cc2F)c[nH]1` [Cpd 085, N-(4-cyano-2-fluoro-phenyl)-5-(2,6-dimethylphenyl)-1H-pyrrole-3-sulfonamide] has an IC50 of 500 to 5000 nM.
In the case of `COc1ccc(-c2cc(S(=O)(=O)Nc3ccc(C#N)cc3F)c[nH]2)c(F)c1` [Cpd 086, N-(4-cyano-2-fluoro-phenyl)-5-(2-fluoro-4-methoxy-phenyl)-1H-pyrrole-3-sulfonamide], the IC50 is reported as 500 to 5000 nM.
With `COc1cccc(-c2cc(S(=O)(=O)Nc3ccc(C#N)cc3F)c[nH]2)c1F` [Cpd 087, N-(4-cyano-2-fluoro-phenyl)-5-(2-fluoro-3-methoxy-phenyl)-1H-pyrrole-3-sulfonamide] the IC50 was 500 to 5000 nM.
`N#Cc1ccc(NS(=O)(=O)c2c[nH]c(-c3cc(F)c(F)cc3F)c2)c(F)c1` [Cpd 088, N-(4-cyano-2-fluoro-phenyl)-5-(2,4,5-trifluorophenyl)-1H-pyrrole-3-sulfonamide] was tested, and the IC50 was < 500 nM.
For `COc1nccc(F)c1-c1cc(S(=O)(=O)Nc2ccc(C#N)cc2F)c[nH]1` [Cpd 089, N-(4-cyano-2-fluoro-phenyl)-5-(4-fluoro-2-methoxy-3-pyridyl)-1H-pyrrole-3-sulfonamide], the IC50 was < 500 nM.
For `N#Cc1ccc(NS(=O)(=O)c2c[nH]c(-c3ncccc3F)c2)c(F)c1` [Cpd 090, N-(4-cyano-2-fluorophenyl)-5-(3-fluoropyridin-2-yl)-1H-pyrrole-3-sulfonamide], the IC50 was < 500 nM.
For `N#Cc1ccc(NS(=O)(=O)c2c[nH]c(-c3c(F)cccc3F)c2)c(F)c1` [Cpd 091, N-(4-cyano-2-fluoro-phenyl)-5-(2,6-difluorophenyl)-1H-pyrrole-3-sulfonamide], the IC50 was < 500 nM.
With `N#Cc1ccc(NS(=O)(=O)c2c[nH]c(-c3ccccc3C(F)F)c2)c(F)c1` [Cpd 093, N-(4-cyano-2-fluoro-phenyl)-5-[2-(difluoromethyl)phenyl]-1H-pyrrole-3-sulfonamide] the IC50 was 500 to 5000 nM.
